“Also recorded” adds a separate entry of the source.
Experiments:
[1] = system: PANC-1 pancreatic cancer cells; experiment: Anchorage independent colony formation in soft agar; format: cell-based; conditions: 10 μM or 15 μM, 20 days; listed as De-ethylflavopereirine
Excerpt: FIG. 13. Colony formation in soft agar of PANC-1 pancreatic cancer cells with or without de-ethylflavopereirine treatment.
Anchorage independent colony formation assay in soft agar was used to test long-term survival (20 days) of tumorigenic pancreatic cancer cells after exposure to de-ethylflavopereirine. PANC-1 cells formed colonies at the rate of 12% when untreated. […] No tumorigenic cancer cells survived after exposure to compound 13-9-1 (FIG. 13).

[2] = system: LnCap; experiment: Cell Proliferation (anti-cancer), LnCap; format: cell-based, human
Procedure: (§1) The primary goal of synthesizing de-ethylflavopereirine (compound 13-9-1) was to generate a different compound that still retains the anti-cancer cell activity of flavopereirine (compound 13-7-2). Comparison of the effects of the two compounds on proliferation of a variety of cancer cells confirmed that this goal was achieved. For example, the effect of de-ethylflavopereirine on two human breast cancer cell lines and two human prostate cancer cell lines were analyzed.

[3] = system: MIA PaCa, PANC-1, BxPc, AsPc; experiment: MTT cell viability, pancreatic cancer cell lines; format: cell-based, human; conditions: 48 hr
Procedure: FIG. 8. Dose-response curves for cell viability of human pancreatic cancer cell lines MIA PaCa (squares), PANC-1 (lozenges), BxPc (crosses), and AsPc (triangles) exposed to de-ethylflavopereirine. Cells were cultured in the presence of increasing concentrations of the compound for 48 hr and cell viability was determined by MTT assay. MRC-5 (asterisks) was used as a control.
De-ethylflavopereirine was tested for its activity against ovarian, pancreatic, brain, and colon cancer cell lines. […] Cytotoxicity is assayed by reducing a yellow tetrazolium dye, 3-(4,5-dimethylthiazol-2-yl)-2,5-diphenyltetrazolium bromide (MTT), to insoluble purple formazan. The MTT assay is a colorimetric assay for determining the number of viable cells.

[4] = mouse, in vivo
Procedure: To estimate the maximum tolerated dose of compounds 13-7-2 and 13-9-1 in mice, both compounds were dissolved in PBS and given to SCID mice by oral gavage.
Compound 13-7-2 was administered at a dose of 100 mg/kg, 150 mg/kg, or 200 mg/kg. Each dose group consisted of three mice.
Compound 13-9-1 was administered at a dose of 100 mg/kg, 150 mg/kg, or 200 mg/kg by oral gavage (three mice per dose group).
In a separate dose finding/toxicity test with compound 13-9-1, three mice received escalating doses of 50 mg/kg/day for 3 days, 100 mg/kg/day for 7 days, 200 mg/kg/day for 7 days, and 300 mg/kg/day for 3 days, given by oral gavage. Mice were monitored closely for toxic signs.

[5] = system: two human breast cancer cell lines; experiment: Proliferation of breast cancer cell lines; format: cell-based
Procedure: as §1

[6] = system: glioblastoma cell lines U-87MG, DBTRG-05MG, A172; experiment: Glioblastoma cell viability and proliferation assay (ATP); format: cell-based; conditions: 3 nM to 30 uM, 72 hr
Procedure: (§2) FIG. 9. Glioblastoma in vitro cell viability and proliferation assay after treatment with de-ethylflavopereirine. Glioblastoma cell lines U-87MG, DBTRG-05MG, A172, and AM-38 were tested. Temozolomide, an oral chemotherapy drug known to treat some brain cancers, was used as a control. The concentrations of temozolomide (circles) or compound 13-9-1 (squares) used were 3 nM, 10 nM, 30 nM, 100 nM, 1 uM, 3 uM, 10 uM, and 30 uM. Each of the cell lines was treated with de-ethylflavopereirine for 72 hr before measuring cytotoxicity and inhibition of cell proliferation. Number of viable cells in culture based on quantitation of ATP. IC50 was determined as indicated below each graph.
(§3) The dose-response curves for the anti-brain cancer drug temozolomide are shown for comparison.

[7] = system: RPWE-1; experiment: Cell Proliferation (anti-cancer), RPWE-1; format: cell-based, human
Procedure: as §1

[8] = system: AM-38; experiment: Glioblastoma cell viability and proliferation assay (ATP), AM-38; format: cell-based; conditions: AM38, 72 hr
Procedure: as §2, §3

[9] = system: HT-29 tumors; experiment: Subcutaneous HT-29 colon cancer xenografts; format: in vivo; conditions: for toxicity and deaths of tumor-bearing mice: mouse, in vivo; for TUNEL staining of tumor sections: tumors removed after treatment
Procedure: FIG. 30. Effect of de-ethylflavopereirine on HT-29 colon cancer tumor volume. Nude mice with subcutaneous xenografts of human HT-29 colon cancer cells were grouped as untreated control (squares), administered compound 13-9-1 (triangles), or administered IFL as conventional chemotherapy regimen (circles). IFL is a combination of irinotecan, fluorouracil, and leucovorin often used for treatment of colorectal cancer. […] Animals were treated for two and a half weeks.
FIGS. 31 to 33 show TUNEL staining of HT-29 tumors removed from untreated mice (control) in FIG. 31, mice administered de-ethylflavopereirine in FIG. 32, or mice administered IFL in FIG. 33. […] After treatments were concluded, tumors were removed from the animals, fixed, thin sectioned, and stained by the TUNEL method to identify cells undergoing apoptosis. In FIG. 31, the borders of tumors from control animals show intact tissue and the absence of TUNEL staining. […] The color images clearly distinguish the dark purple/brown color of cells undergoing apoptotis from the blue color of intact tumor cells.
In this example, the anti-tumor activity of de-ethylflavopereirine was compared with the activity of IFL (a combination of irinotecan, fluorouracil, and leucovorin). IFL has been routinely used in the treatment of colorectal cancer, but is associated with significant toxicity. The toxicity is so severe that some have encapsulated irinotecan in liposomes to reduce negative side effects.
A comparison of the direct impact of de-ethylflavopereirine and IFL on tumors is depicted in FIGS. 32 and 33. Terminal deoxynucleotidyl transferase dUTP nick-end labeling (TUNEL) is a method for detecting DNA fragmentation by labeling the 3′-hydroxyl termini in the double-strand DNA breaks generated during apoptosis. Tumor sections from the two groups and an untreated control group were immunostained by the TUNEL method to specifically identify cells undergoing apoptosis.

[10] = Homo sapiens, after any period of treatment, read-out: Minimum Dose (IC50) needed to decrease growth 50% or greater versus control

Structure (SMILES): c1ccc2c(c1)[nH]c1c2cc[n+]2ccccc12 [Compound 13-9-1, 12H-indolo[2,3-a]quinolizin-5-ium]
- colony formation in soft agar [1]: completely inhibited formation of PANC-1 colonies; also recorded: completely inhibited colony formation
- Growth Inhibition [2]: Yes
- IC50 [2, 10]: 5 µM
- cell viability [3]: dose-dependent decrease in cancer cell viability
- tolerated dose, oral administration ([4]; SCID): ≥ 300 mg/kg
- deaths ([4]; SCID, po, 200 mg/kg, 48 hr): One mouse in the 200 mg/kg group died 15 min after the administration of the compound (apparently due to trauma caused by oral gavage)
- toxic signs ([4]; po, 50 mg/kg/day): No abnormality was observed
- IC50 compared with flavopereirine [5]: same IC50s
- glioblastoma cell viability [6]: dose-dependent decrease in glioblastoma cell viability
- Growth Inhibition [7]: Yes
- IC50 [7, 10]: 5 µM
- IC50 relative to IC50 of temozolomide [8]: 0.66 times
- toxicity and deaths of tumor-bearing mice [9]: did not have toxic effects on the mice
- toxicity and deaths of tumor-bearing mice ([9]; nude, 2.5 weeks): No animals treated with compound 13-9-1 died
- HT-29 tumor volume ([9]; treated for two and a half weeks): reduced HT-29 tumor volumes
- TUNEL staining of tumor sections [9]: apoptosis in zones near the periphery of the tumors
- TUNEL staining of tumor sections ([9]; listed as de-ethylflavopereirine): cells on the periphery were undergoing apoptosis
